Results: patent US12049450B2, “Pyridyloxy-carboxylate derivative and preparation method therefor, herbicidal composition, and use” (Qingdao Kingagroot Chemical Compound Co., Ltd., priority 2018, dated 2024)

Columns and labels:
Test in all cases: Post-emergence test experiment (greenhouse pot, spray at 2-3 leaf stage)
Assay type in all cases: in vivo
Settings in all cases: 1000 g/ha; post-emergence spray at 2-3 leaf stage; assessed after 3 weeks; fresh weight inhibition rate
Abutilon theophrasti = test system: Abutilon theophrasti
Summary of the method: (§1)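 Weed seeds sown in soil-filled pots in greenhouse, sprayed at 2-3 leaf stage (2 weeks after sowing) with compound in acetone/tween-80 plus methyl oleate emulsible concentrate (1.5 L/ha) diluted in water. Fresh-weight growth inhibition scored after 3 weeks on 0-5 scale (5: >85%, 0: <5%).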

Digitaria sanguinalis = test system: Digitaria sanguinalis
Summary of the method: as §1

Echinochloa crusgalli = test system: Echinochloa crusgalli
Summary of the method: as §1

Galium spurium = test system: Galium spurium
Summary of the method: as §1

Monochoria vaginalis = test system: Monochoria vaginalis
Summary of the method: as §1

CCn1cnc2ccc(COC(=O)C(C)Oc3nc(F)c(Cl)c(N)c3Cl)cc21 (centres unmarked) [Compound 172]
Activity level (growth inhibition rate) Abutilon theophrasti (Abutilon theophrasti): 5 (Level 5: the growth inhibition rate is greater than 85%) | Activity level (growth inhibition rate) Digitaria sanguinalis (Digitaria sanguinalis): 5 (Level 5: the growth inhibition rate is greater than 85%) | Activity level (growth inhibition rate) Echinochloa crusgalli (Echinochloa crusgalli): 5 (Level 5: the growth inhibition rate is greater than 85%) | Activity level (growth inhibition rate) Galium spurium (Galium spurium): 5 (Level 5: the growth inhibition rate is greater than 85%) | Activity level (growth inhibition rate) Monochoria Vaginalis (Monochoria vaginalis): 5 (Level 5: the growth inhibition rate is greater than 85%)

CC(Oc1nc(F)c(Cl)c(N)c1Cl)C(=O)SCc1ccc(C(F)(F)F)cc1 (centres unmarked) [Compound 234]
Activity level (growth inhibition rate) Abutilon theophrasti (Abutilon theophrasti): 5 (Level 5: the growth inhibition rate is greater than 85%) | Activity level (growth inhibition rate) Digitaria sanguinalis (Digitaria sanguinalis): 5 (Level 5: the growth inhibition rate is greater than 85%) | Activity level (growth inhibition rate) Echinochloa crusgalli (Echinochloa crusgalli): 5 (Level 5: the growth inhibition rate is greater than 85%) | Activity level (growth inhibition rate) Galium spurium (Galium spurium): 5 (Level 5: the growth inhibition rate is greater than 85%) | Activity level (growth inhibition rate) Monochoria Vaginalis (Monochoria vaginalis): 5 (Level 5: the growth inhibition rate is greater than 85%)

CC(Oc1nc(C(F)(F)F)c(Cl)c(N)c1Cl)C(=O)SCc1ccccc1 (centres unmarked) [Compound 6]
Activity level (growth inhibition rate) Abutilon theophrasti (Abutilon theophrasti): 5 (Level 5: the growth inhibition rate is greater than 85%) | Activity level (growth inhibition rate) Digitaria sanguinalis (Digitaria sanguinalis): 5 (Level 5: the growth inhibition rate is greater than 85%) | Activity level (growth inhibition rate) Echinochloa crusgalli (Echinochloa crusgalli): 5 (Level 5: the growth inhibition rate is greater than 85%) | Activity level (growth inhibition rate) Galium spurium (Galium spurium): 5 (Level 5: the growth inhibition rate is greater than 85%) | Activity level (growth inhibition rate) Monochoria Vaginalis (Monochoria vaginalis): 5 (Level 5: the growth inhibition rate is greater than 85%)

CC(Oc1nc(F)c(Cl)c(N)c1Cl)C(=O)OCc1ccoc1 (centres unmarked) [Compound 213]
Activity level (growth inhibition rate) Abutilon theophrasti (Abutilon theophrasti): 5 (Level 5: the growth inhibition rate is greater than 85%) | Activity level (growth inhibition rate) Digitaria sanguinalis (Digitaria sanguinalis): 5 (Level 5: the growth inhibition rate is greater than 85%) | Activity level (growth inhibition rate) Echinochloa crusgalli (Echinochloa crusgalli): 5 (Level 5: the growth inhibition rate is greater than 85%) | Activity level (growth inhibition rate) Galium spurium (Galium spurium): 5 (Level 5: the growth inhibition rate is greater than 85%) | Activity level (growth inhibition rate) Monochoria Vaginalis (Monochoria vaginalis): 5 (Level 5: the growth inhibition rate is greater than 85%)

CC(Oc1nc(F)c(Cl)c(N)c1Cl)C(=O)OCc1cc(Br)cc(C=O)c1 (racemic) [Compound 111]
Activity level (growth inhibition rate) Abutilon theophrasti (Abutilon theophrasti): 5 (Level 5: the growth inhibition rate is greater than 85%) | Activity level (growth inhibition rate) Digitaria sanguinalis (Digitaria sanguinalis): 5 (Level 5: the growth inhibition rate is greater than 85%) | Activity level (growth inhibition rate) Echinochloa crusgalli (Echinochloa crusgalli): 5 (Level 5: the growth inhibition rate is greater than 85%) | Activity level (growth inhibition rate) Galium spurium (Galium spurium): 5 (Level 5: the growth inhibition rate is greater than 85%) | Activity level (growth inhibition rate) Monochoria Vaginalis (Monochoria vaginalis): 5 (Level 5: the growth inhibition rate is greater than 85%)

CC(Oc1nc(F)c(Cl)c(N)c1Cl)C(=O)OCc1cccc(Cl)c1 (centres unmarked) [Compound 203]
Activity level (growth inhibition rate) Abutilon theophrasti (Abutilon theophrasti): 5 (Level 5: the growth inhibition rate is greater than 85%) | Activity level (growth inhibition rate) Digitaria sanguinalis (Digitaria sanguinalis): 5 (Level 5: the growth inhibition rate is greater than 85%) | Activity level (growth inhibition rate) Echinochloa crusgalli (Echinochloa crusgalli): 5 (Level 5: the growth inhibition rate is greater than 85%) | Activity level (growth inhibition rate) Galium spurium (Galium spurium): 5 (Level 5: the growth inhibition rate is greater than 85%) | Activity level (growth inhibition rate) Monochoria Vaginalis (Monochoria vaginalis): 5 (Level 5: the growth inhibition rate is greater than 85%)

CC(Oc1nc(F)c(Cl)c(N)c1Cl)C(=O)OCc1cc2ccccc2o1 (centres unmarked) [Compound 173]
Activity level (growth inhibition rate) Abutilon theophrasti (Abutilon theophrasti): 5 (Level 5: the growth inhibition rate is greater than 85%) | Activity level (growth inhibition rate) Digitaria sanguinalis (Digitaria sanguinalis): 5 (Level 5: the growth inhibition rate is greater than 85%) | Activity level (growth inhibition rate) Echinochloa crusgalli (Echinochloa crusgalli): 5 (Level 5: the growth inhibition rate is greater than 85%) | Activity level (growth inhibition rate) Galium spurium (Galium spurium): 5 (Level 5: the growth inhibition rate is greater than 85%) | Activity level (growth inhibition rate) Monochoria Vaginalis (Monochoria vaginalis): 5 (Level 5: the growth inhibition rate is greater than 85%)
